Here are results for five molecules from US20110301168A1, “CYCLOALKANE[B]AZAINDOLE ANTAGONISTS OF PROSTAGLANDIN D2 RECEPTORS” (AMIRA PHARMACEUTICALS, INC., priority 2008, published 2011).

Structures are written as SMILES.

In test [1] the target is T1, human DP2 receptor (Homo sapiens, UniProt Q9Y5Y4).
T1 construct: expressed in transfected cells; membrane preparation
T1 sequence (Q9Y5Y4 1-395): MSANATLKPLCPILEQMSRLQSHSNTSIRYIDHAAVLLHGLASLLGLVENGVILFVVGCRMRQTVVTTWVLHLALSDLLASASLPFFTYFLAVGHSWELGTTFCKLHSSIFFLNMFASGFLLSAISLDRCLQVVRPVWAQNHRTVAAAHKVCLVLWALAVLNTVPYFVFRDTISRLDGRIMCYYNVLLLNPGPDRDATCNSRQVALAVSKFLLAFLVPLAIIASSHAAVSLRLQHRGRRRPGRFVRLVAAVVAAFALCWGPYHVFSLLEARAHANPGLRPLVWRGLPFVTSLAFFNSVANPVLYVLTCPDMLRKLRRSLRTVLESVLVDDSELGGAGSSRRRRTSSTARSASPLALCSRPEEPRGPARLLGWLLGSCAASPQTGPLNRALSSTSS
As to the kind of experiment: DP2/CRTH2 radioligand binding assay using [3H]PGD2. The conditions noted are these: membranes of HEK293 cells expressing recombinant human DP2, 1 nM [3H]PGD2; read-out: hDP2. As to the method:
The ability of a compound to bind to the human DP2 receptor is assessed via a radioligand binding assay using [^3H]PGD2. HEK293 cells stably expressing recombinant human DP2 are resuspended in 10 mM Hepes, 7.4 containing 1 mM DTT, lysed and centrifuged at 75,000×g to pellet the membranes. The membranes are resuspended in 10 mM Hepes, 7.4 containing 1 mM DTT and 10% glycerol to approximately 5 mg protein/ml. Membranes (2-10 μg protein/well) are incubated in 96-well plates with 1 nM [^3H]PGD2 and test compound in Assay Buffer (50 mM Hepes, 10 mM MnCl2, 1 mM EDTA, plus or minus 0.2% human serum albumin, pH 7.4) for 60 minutes at room temperature. The reactions are terminated by rapid filtration through Whatman GF/C glass fibre filter plates. The filter plates were pre-soaked in 0.33% polythylenimine for 30 minutes at room temperature then washed in Wash Buffer (50 mM Hepes, 0.5 M NaCl pH 7.4) prior to harvesting. After harvesting, the filter plates are washed 3 times with 1 ml cold Wash Buffer then dried. Scintillant is then added to the plates and the radioactivity retained on the filters is determined on a Packard TopCount (Perkin Elmer). Specific binding is determined as total radioactive binding minus non-specific binding in the presence of 10 μM PGD2. IC50s were determined using GraphPad prism analysis of drug titration curves.

Test [2] relates to mouse model of allergic rhinitis. As to the kind of experiment: Mouse allergic rhinitis model (OVA-induced sneezing and nasal rubbing). In kind it is in vivo. The note with it: 10 mg/kg administered as the sodium salt, oral gavage 1 hour prior to OVA challenge; significantly reduced, approximately. As to the method:
The compounds ability to inhibit allergen-induced sneezing and nasal rubbing is assessed using a mouse model of allergic rhinitis. Methods were adapted from those detailed in Nakaya, M., et al. 2006, Laboratory Investigation, 86:917-926. Female BALB/c mice (20-25 g) are immunized by an intraperitoneal injection (i.p.) of 10 μg ovalbumin (OVA) complexed with alum in a volume 0.2 mL on days 0 and 7. Fourteen days later (day 21) mice are challenged intranasally with 20 μl of a 10 mg/mL solution of OVA. The challenge period occurs daily from days 21 to day 23. Mice (5-7/group) are randomly assigned to receive either compound or vehicle and are treated by oral gavage 1 hour prior to OVA challenge. The number of sneezes and nasal rubs are counted by an independent blinded observe during a period of 8 minutes immediately following OVA challenge on days 21, 23 and […]. A significant increase in allergen-induced sneezing and nasal rubbing occurs over the 3-day challenge period. Inhibition of this effect by select compounds is determined statistically using Graphpad prism.

`CN(C1CCc2c(c3nccnc3n2CC(=O)O)C1)S(=O)(=O)c1ccc(F)cc1` (stereo not drawn) [Compound 24, {8-[N-(4-fluoro-benzenesulfonyl)-N-methyl-amino]-6,7,8,9-tetrahydro-5H-pyrazino [2,3-b]indol-5-yl}acetic acid]: the IC50 in test [1] is > 100 nM.

For `CN([C@@H]1CCc2c(c3ncccc3n2CC(=O)O)C1)S(=O)(=O)c1ccc(F)cc1` (single isomer, unassigned) [Compound 10], in test [1], the IC50 was < 100 nM.

For `CN(C1CCc2c(c3cccnc3n2CC(=O)O)C1)S(=O)(=O)c1ccc(F)cc1` (stereo not drawn) [Compound 23, {6-[N-(4-fluoro-benzenesulfonyl)-N-methyl-amino]-7,8-dihydro-5H-pyrido[2,3-b]indol-9(6H)-yl}-acetic acid], the IC50 in test [1] is > 100 nM.

With `CN(C1CCc2c(c3ncccc3n2CC(=O)O)C1)S(=O)(=O)c1ccc(F)cc1` (racemic) [Compound 9, {8-[N-(4-fluoro-benzenesulfonyl)-N-methyl-amino]-6,7,8,9-tetrahydro-pyrido[3,2-b]indol-5-yl}-acetic acid], in test [2], the “reduction of sneezing and nasal rubs versus vehicle-treated mice” value is reported as 40-50%. For the same molecule, the IC50 in test [1] is < 100 nM.

`CN([C@H]1CCc2c(c3ncccc3n2CC(=O)O)C1)S(=O)(=O)c1ccc(F)cc1` (single isomer, unassigned) [Compound 11]: the IC50 in test [1] is > 100 nM.
